According to patent US5336485A, “Method for protecting animals against tacrine induced cytotoxic injury using sterol compounds” (priority 1993, dated 1994):
Where a name gives a salt, the structure may show the parent alone.

Key:
[1] = tested on: liver; test: THA-induced hepatotoxicity in rats (serum AST); format: in vivo, rat; settings: 100 mg/kg ip
Protocol: FIGS. 10 and 11 show the results of in vivo experiments where male Sprague-Dawley rats were given an oral dose of 15 or 30 mg THA/kg body weight, respectively. […] The serum AST levels were determined with respect to time after the THA challenge.

[2] = tested on: rat hepatocytes; test: EMS-induced lipid peroxidation in rat hepatocyte suspensions; format: cell-based; settings: 50 mM EMS
Protocol: (§1) At each time-point, rapid separation of viable from non-viable hepatocytes and medium was accomplished by the dibutyl phthalate centrifugation method. Cell viability was monitored hourly by measuring LDH leakage with a Cobas Analyzer and intracellular [K^+ ]with a flame photometer. LDH was routinely measured in the medium while intracellular K^+ was measured in the 10% perchloric acid lysate of viable cells. Lipid peroxidation was determined by measuring TBA reactants in the medium. […] The samples were diluted with 0.3 ml 1% ascorbate in 0.1 M SDS, 0.4 ml ethanol, sonicated and extracted once with 0.8 ml hexane. Next, the hexane extract was evaporated to dryness with N2, the residue dissolved in 2.5% ascorbate in methanol (1 ml) and analyzed (100 μl) by high-performance liquid chromatograph (HPLC). […] The mobile phase, 95% MeOH was run isocratically and the HPLC retention times for delta and alpha-tocopherol were approximately eleven and sixteen minutes, respectively. […] Following the addition of 0.2 ml 4 M HC1, the neutralized KOH-MeOH extracted with 0.8 ml hexane. […] A standard curve for each tocopherol congener was run with every assay. […] Only viable cells were monitored in the laboratory procedures.
(§2) Rat hepatocyte suspensions were subjected to 50 mM EMS and the percentage of cell death, the percentage of intracellular K^+ (a metabolic parameter as discussed above), the depletion of ATP and the effect on lipid peroxidation were monitored.

[3] = tested on: male Sprague-Dawley rats; test: CCl4 induced lethality in rats; format: in vivo, rat
[4] = tested on: CDF1 mice; test: Doxorubicin lethality in CDF1 mice (normal tissue); format: in vivo, mouse; settings: 100 mg/kg ip 20 h prior, DOX 10, 15, 20, 25 mg/kg
Protocol: (§3) The experiments were conducted in accordance with NCI Protocol 1,100. FIGS. 8a-d show the experimental results obtained when male CDF1 mice (n=6) received either vehicle only or 100mg/kg body weight i.p. dose of either alpha-TS or cholesteryl succinate 20 hours prior to DOX administration. FIGS. 8a-d respectively show the results obtained when the mice received 10, 15, 20, and 25 mg DOX/kg body weight. […] FIGS. 9a-d show the experimental results obtained when male CDF1 mice ([…]) were injected (i.p.) with 10^6 murine L1210 leukemia cells followed immediately by an injection of alpha-TS tris salt (100 mg/kg, i.p.) or saline injection (vehicle), and twenty hours later (Day=0) each mouse in three of the groups was i.p. injected with 15, 20, or 25 mg DOX/kg body weight ([…]). Survival was monitored for twenty days.

[5] = tested on: liver; test: CCl4 induced hepatotoxicity in rats (serum AST/ALT); format: in vivo, rat; settings: for Serum AST Levels: listed as Cholesteryl Succinate free acid
Outline: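 Male Sprague-Dawley rats received test compounds i.p. at 100 mg/kg 20–24 h before oral CCl4 (2.9 g/kg or 1 g/kg). Serum AST and ALT were measured 48 h after CCl4 challenge.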

[6] = tested on: rat hepatocytes; test: EMS-induced cytotoxicity (LDH leakage/cell death) in rat hepatocyte suspensions; settings: for Cell Death: 50 mM EMS, 5 Hrs, alpha-TS 25, methyl ester 50, cholesteryl succinate 100, monomethyl/dimethyl succinate 250 μM; for inhibition at 25 µM: Rattus norvegicus, Hepatocyte
Protocol: To determine if alpha-TS is a cytoprotective agent under physiological conditions, liver cells were incubated with Waymouth's medium containing approximately 1 mM extracellular Ca^2+ in the presence and absence of alpha-TS.
as §1
To determine the relative cytoprotective potency of various tocopherol derivatives, the effect of varying doses of a tocopherol analog on the protection against EMS-induced toxicity was examined in vitro on rat hepatocyte suspensions. Specifically, the following ionizable tocopherol congeners were tested: alpha-TS, alpha tocopheryl glutarate (alpha-TG), and alpha tocopheryl phosphate (alpha-TP). […] 0.1 nmoles is the lower detection limit.
In vitro experiments were conducted with a variety of different tocopherol and succinate analogs to determine which were protective against EMS induced toxicity. After five hours of incubation with 50 mM EMS and 25μM of a tocopherol or succinate analog, cytoprotection was determined by comparing the percentage of LDH leakage from control hepatocytes (vehicle only, assumed 100% protection) with the EMS only treated cells (assumed 0% protection).
An in vitro experiment with rat hepatocyte suspensions was performed to determine the effect of esterase inhibitors on alpha-TS.
as §2

[7] = tested on: L1210 leukemia cells; test: Doxorubicin in L1210 leukemia bearing CDF1 mice; format: in vivo, mouse; settings: DOX 10 mg/kg
Protocol: as §3

[8] = tested on: L1210 murine leukemia cells; test: Inhibition of L1210 leukemia cell growth in vitro; format: cell-based, mouse
Protocol: Similar in vitro experiments were conducted with cholesteryl succinate tris salt and alpha-TS tris salt.

[9] = tested on: liver; test: Acetaminophen-induced hepatotoxicity in rats (AST/ALT); format: in vivo, rat
Protocol: In vivo experiments were performed to determine if alpha-TS administration protects the liver from the hepatotoxic effects of acetaminophen. Acetaminophen is a commonly used analgesic that is metabolized to a reactive intermediate. […] The other group of male Sprague-Dawley rats received only the acetaminophen challenge. Forty eight hours after the challenge the rats were sacrificed and the levels of aspartate aminotransferase (AST) and alanine aminotransferase (ALT) were measured.
FIGS. 10 and 11 show the results of in vivo experiments where male Sprague-Dawley rats were given an oral dose of 15 or 30 mg THA/kg body weight, respectively. In the experiments, one group of rats was provided with an i.p. dose of 100 mg cholesteryl succinate tris salt/kg body weight 20 hours prior to the THA challenge, another group of rats only received the THA challenge, and the last group of rats acted as a control and were not challenged. The serum AST levels were determined with respect to time after the THA challenge.

[10] = tested on: rat hepatocytes; test: Cellular alpha-tocopherol and tocopherol ester content of rat hepatocytes; settings: 25 μM, Table 2
Protocol: as §1
The hepatocytes were subsequently exposed to 50mM EMS for three hours.

[11] = Tissue distribution of alpha-tocopherol and alpha-tocopherol ester in rats; format: in vivo, rat; settings: 100 mg/kg ip, 24 h
Protocol: 100 mg/kg body weight of a tocopherol analog was administered to Sprague-Dawley rats using a peanut oil:ethanol vehicle (3:2). Twenty four hours later the rats were sacrificed and the accumulation of the tocopherol analog in the liver was determined.
A similar in vivo experiment to that discussed in conjunction with Table 5 was performed to determine if other tissues accumulate alpha-TS. Male Sprague-Dawley rats were given a 100 mg/kg dose of alpha-TS using a variety of chemical forms and vehicles. A variety of techniques were used to administer the alpha-TS. Twenty four hours later the rats were sacrificed and the tissues were tested for alpha-TS accumulation.

[12] = tested on: variety of cell types; settings: cited from earlier work
[13] = tested on: L1210 leukemia cells; settings: 100 mg/kg ip
[14] = tested on: rat hepatocytes; test: Intracellular K+ of rat hepatocytes exposed to EMS; format: cell-based; settings: 50 mM EMS, 5 Hrs; concentrations as cell death (Table 15)
Description: Medzhradsky, Biochem. Med. 13:164 (1975), has noted that the cell's ability to maintain its intracellular concentration of potassium (K^+) is an excellent indicator of the metabolic integrity of the cell. A concentration gradient exists for K^+ with greater concentrations found intracellularly. To maintain this gradient, the cell is dependent on the action of the Na^+ -K^+ ATPase pump and an adequate supply of ATP. As cellular ATP levels decline, the ATPase pump is unable to maintain the gradient resulting in the loss of intracellular K^+ by equilibration with the extracellular space. Because the maintenance of cellular metabolic processes is essential to the continual repair and survival of cells, organ systems, and organisms, the effect of alpha-TS on the metabolic integrity of rat liver cells during a toxic insult was investigated by measuring intracellular K^+ levels. […] At each time-point, rapid separation of viable from non-viable hepatocytes and medium was accomplished by the dibutyl phthalate centrifugation method. Cell viability was monitored hourly by measuring LDH leakage with a Cobas Analyzer and intracellular [K^+ ]with a flame photometer. […] Lipid peroxidation was determined by measuring TBA reactants in the medium. […] Alltech, Avondale, Pa.). […] Following the addition of 0.2 ml 4 M HC1, the neutralized KOH-MeOH extracted with 0.8 ml hexane. […] A standard curve for each tocopherol congener was run with every assay. […] Only viable cells were monitored in the laboratory procedures.

[15] = tested on: gluconeogenesis or ATP production; settings: cited from earlier work
[16] = 100 mg/kg, single dose 24 h prior, CCl4 […]
[17] = 100 mg/kg ip 20 hrs prior, 48 h after 2 g/kg AP (Table 23)
[18] = 100 mg/kg ip 20 h prior, 48 h after 1 g/kg CCl4 (Table 20)
[19] = 100 mg/kg ip, 48 h after 1 g/kg CCl4 (Table 33)
[20] = 100 mg/kg ip, no CCl4 (Table 20)
[21] = 100 mg/kg ip, no CCl4 (Table 33)
[22] = rat plasma, 100 mg/kg ip 24 h prior, 48 h after […] CCl4
[23] = 100 mg/kg ip 20 h prior, 48 h after 1 g/kg CCl4 (Table 27)

Structure (SMILES): CC(C)CCC[C@@H](C)[C@H]1CC[C@H]2[C@@H]3CC=C4C[C@@H](OC(=O)CCC(=O)O)CC[C@]4(C)[C@H]3CC[C@]12C [Cholesteryl Succinate]
- protection against THA hepatotoxicity (FIG. 10) ([1]; THA 15 mg/kg): protects against the hepatotoxicity resulting from THA
- protection against THA hepatotoxicity (FIG. 11) ([1]; THA 30 mg/kg): protects against the hepatotoxicity resulting from THA
- Lipid Peroxidation ([2]; 5 Hrs, concentrations as cell death (Table 15)): 11.3 ± 4.2 nmolMDA/10^6 cells
- Days Survived After CCl4 Treatment [3, 16]: > 7 days
- survival after DOX, normal mice (FIGS. 8a-d) [4]: survived significantly longer
- Serum AST Levels ([5]; 100 mg/kg ip 20 h prior, 24 hrs after 2 g/kg CCl4 (Table 26)): 1.84 ± 1.13 10^3 units/L
- Serum AST Levels ([5]; 100 mg/kg ip 20 h prior, 48 hrs after 2 g/kg CCl4 (Table 26)): 1.90 ± 2.64 10^3 units/L
- Cell Death [6]: 48 ± 4%
- inhibition at 25 µM ([6]; 5 h, read-out: Percent Cytoprotection): 30 ± 22%

Structure (SMILES): COc1cccc2c1C(=O)c1c(O)c3c(c(O)c1C2=O)C[C@@](O)(C(=O)CO)C[C@@H]3O[C@H]1C[C@H](N)[C@H](O)[C@H](C)O1 [DOX, doxorubicin, reference compound]
- survival of tumor bearing mice given DOX [7]: dramatically increased

Structure (SMILES): O=C(O)CCC(=O)O [Tris Succinate, reference compound]
- growth rate of L1210 cells (FIG. 7) [8]: no effect on the growth rate
- Serum ALT Level [9, 17]: 623 ± 339 Units/L
- Serum AST Level [9, 17]: 2286 ± 1190 Units/L
- Serum ALT Level ([9]; 100 mg/kg ip, no AP (Table 23)): 50 ± 7 Units/L
- Serum AST Level ([9]; 100 mg/kg ip, no AP (Table 23)): 93 ± 34 Units/L
- ALT [5, 18]: 3.617 ± 0.858 10^3 units/L
- AST [5, 18]: 11.22 ± 3.15 10^3 units/L
- ALT [5, 19]: 2.135 ± .881 10^3 units/L
- AST [5, 19]: 8.32 ± 2.65 10^3 units/L
- ALT [5, 20]: 0.048 ± 0.005 10^3 units/L
- AST [5, 20]: 0.11 ± 0.02 10^3 units/L
- ALT [5, 21]: 0.058 ± .001 10^3 units/L
- AST [5, 21]: 0.15 ± 5.02 10^3 units/L

Structure (SMILES): CC(=O)Oc1c(C)c(C)c2c(c1C)CC[C@@](C)(CCC[C@H](C)CCC[C@H](C)CCCC(C)C)O2 [alpha-TA, d-alpha-tocopherol acetate, reference compound]
- inhibition at 25 µM ([2]; Rattus norvegicus, Hepatocyte, 25 μM): 14%
- Protection from CCl4 ([3]; 100 mg/kg ip (Table 5)): No
- Days Survived After CCl4 Treatment ([3]; 100 mg/kg ip, 24 h prior, CCl4 2.2 g/kg): > 7 days
- Days Survived After CCl4 Treatment ([3]; 100 mg/kg ip, 24 h prior, CCl4 3.8 g/kg): 2 days
- Days Survived After CCl4 Treatment ([3]; 100 mg/kg ip, 24 h prior, CCl4 5.0 g/kg): 2 days
- Days Survived After CCl4 Treatment ([3]; 100 mg/kg ip, 24 h prior, CCl4 […]): 3 days
- Cellular Tocopherol ester [10]: 1.7 nmoles/10^6 cells
- Cellular alpha-T [10]: 0.3 nmoles/10^6 cells
- Liver Concentration Ester [11]: 92 ± 6 nmol/g
- ALT [5, 22]: 6,108 ± 417 Units/L
- AST [5, 22]: 20,233 ± 3525 Units/L
- inhibition at 25 µM ([6]; read-out: % Protection, 25 μM, 50 mM EMS): 12%
- protection against carcinogenic effects of radiation and cancer causing chemicals [12]: ineffective

Structure (SMILES): Cc1c(C)c2c(c(C)c1OC(=O)CCC(=O)O)CC[C@@](C)(CCC[C@H](C)CCC[C@H](C)CCCC(C)C)O2 [alpha-TS tris salt, Alpha tocopheryl succinate tris salt]
- growth rate of L1210 cells (FIG. 7) [8]: significantly suppress the growth rate of L1210 cells
- Survival Time [13]: 7.6 ± 0.6 days
- ALT [5, 18]: 0.371 ± 0.246 10^3 units/L
- AST [5, 18]: 1.86 ± 1.11 10^3 units/L
- ALT [5, 23]: 0.52 ± 0.16 10^3 units/L
- AST [5, 23]: 0.79 ± 0.26 10^3 units/L
- inhibition in vivo at 100 mg/kg ([5]; Rattus norvegicus, 100 mg/kg ip 20 h prior, 48 h after 1 g/kg CCl4, read-out: % Hepatoprotection): 80%

Structure (SMILES): COC(=O)CCC(=O)Oc1c(C)c(C)c2c(c1C)CCC(C)(CCCC(C)CCCC(C)CCCC(C)C)O2 (stereo not drawn) [methyl ester of alpha-TS, Alpha-Tocopherol Succinate Methyl Ester]
- % Initial Intracellular [K+] [14]: 67 ± 4 % Initial
- Days Survived After CCl4 Treatment [3, 16]: > 7 days
- Cell Death [6]: 30 ± 1%
- inhibition at 25 µM ([6]; 5 h, read-out: Percent Cytoprotection, 25 μM, 50 mM EMS, 5 h): 22 ± 15%

Structure (SMILES): COC(=O)CCC(=O)O [methyl ester succinate, methyl ester of succinate]
- concentration required to stimulate gluconeogenesis or ATP production [15]: Millimolar concentrations
